The values below are quoted from earlier work in US20220125711A1, “CANNABINOID-CONTAINING ORAL THIN FILM FORMULATIONS” (JDEM Properties, LLC, priority 2020, published 2022).

For this series, the system named is Drosophila. The settings on record: dietary theanine, dose-dependent (Ki and Lim).

The structures appear in SMILES notation.

For `CCNC(=O)CC[C@H](N)C(=O)O` [L-theanine], the “daily amount of sleep” value was “markedly increased” and the “latency to sleep onset” value was “decreased”.
